In the test the test system is Cucumber Green Mottle Mosaic Virus (CGMMV). In words: Symptom expression of CGMMV in cucumbers treated 7 days before mechanical inoculation. The settings on record: cucumber plants, 500 g product in 200 litres water sprayed to run-off 7 days before inoculation. It is filed as in vivo. As to the method:
The experiment tested the effect of boscalid (as Filan®) on the symptom expression of CGMMV in cucumbers. Cucumber plants were treated with Filan or water 7 days before mechanical inoculation with CGMMV. Filan® was applied at 500 g in 200 litres water. Sprays were applied as a fine spray to run-off.
The experiment consisted of 5 plants per each treatment, with three replicates arranged randomly after fungicide treatment, but before inoculation. Plants were then inoculated in situ. Plants were mechanically inoculated at the 4-6 true leaf stage. Cucumber leaves showing symptoms and confirmed by CSL as infected with CGMMV were used as the source of inoculum. Several infected leaves were crushed in a plastic bag with a small amount of distilled water to extract the sap. This sap was then gently rubbed onto the second lowest green leaf of each plant in the experiment. Symptoms of CGMMV were assessed at intervals following inoculation.

In the case of `O=C(Nc1ccccc1-c1ccc(Cl)cc1)c1cccnc1Cl` [Boscalid, boscalid], under “8 days after inoculation, untreated 2.4”, the “Number of leaves with symtoms, 8 days after inoculation (Average)” value was determined as 0.8. Further, the “Number of leaves with symtoms, 33 days after inoculation (Average)” value (33 days after inoculation, untreated 7.4) worked out at 4.4.

The values above are taken from patent publication US20100048403A1, “Method of inducing virus tolerance of plants” (BASF SE, priority 2007, published 2010).
